Assay [1] deals with T1, heme-free soluble guanylate cyclase (Bos taurus, UniProt P16068).
T1 sequence (P16068 1-619): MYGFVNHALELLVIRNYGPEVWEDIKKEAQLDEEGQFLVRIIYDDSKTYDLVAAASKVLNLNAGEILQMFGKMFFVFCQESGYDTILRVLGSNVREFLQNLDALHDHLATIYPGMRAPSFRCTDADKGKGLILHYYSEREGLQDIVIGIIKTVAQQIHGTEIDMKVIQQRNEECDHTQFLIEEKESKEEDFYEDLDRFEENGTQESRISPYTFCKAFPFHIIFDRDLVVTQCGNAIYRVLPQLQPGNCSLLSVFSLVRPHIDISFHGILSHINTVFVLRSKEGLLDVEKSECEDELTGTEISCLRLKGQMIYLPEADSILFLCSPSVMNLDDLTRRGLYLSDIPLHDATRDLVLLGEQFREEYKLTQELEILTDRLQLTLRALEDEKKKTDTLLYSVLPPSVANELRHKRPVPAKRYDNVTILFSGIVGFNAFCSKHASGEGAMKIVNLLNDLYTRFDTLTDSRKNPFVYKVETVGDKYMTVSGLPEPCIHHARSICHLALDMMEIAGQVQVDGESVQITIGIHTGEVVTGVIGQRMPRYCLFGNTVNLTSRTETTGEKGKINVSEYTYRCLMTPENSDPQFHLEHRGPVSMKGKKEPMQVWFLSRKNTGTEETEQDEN
T1 sequence (P19687 1-691 partner): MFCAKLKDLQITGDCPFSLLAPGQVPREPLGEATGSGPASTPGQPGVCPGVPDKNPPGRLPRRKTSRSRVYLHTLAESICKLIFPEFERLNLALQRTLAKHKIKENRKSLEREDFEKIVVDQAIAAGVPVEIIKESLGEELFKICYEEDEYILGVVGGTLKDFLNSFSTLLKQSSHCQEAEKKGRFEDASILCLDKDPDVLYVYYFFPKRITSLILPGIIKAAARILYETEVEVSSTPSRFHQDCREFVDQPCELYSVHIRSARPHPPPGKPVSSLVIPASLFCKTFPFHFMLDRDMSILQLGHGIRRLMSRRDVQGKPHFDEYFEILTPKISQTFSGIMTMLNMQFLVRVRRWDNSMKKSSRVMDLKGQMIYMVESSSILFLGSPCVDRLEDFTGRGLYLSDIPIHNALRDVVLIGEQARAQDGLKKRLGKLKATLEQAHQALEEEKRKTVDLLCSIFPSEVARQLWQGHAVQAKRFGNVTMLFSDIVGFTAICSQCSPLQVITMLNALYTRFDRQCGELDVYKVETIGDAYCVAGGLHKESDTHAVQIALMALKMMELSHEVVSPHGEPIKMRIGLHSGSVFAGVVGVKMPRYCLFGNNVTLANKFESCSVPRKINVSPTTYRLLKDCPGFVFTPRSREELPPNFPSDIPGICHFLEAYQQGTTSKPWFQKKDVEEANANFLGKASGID
Put plainly: Activation of heme-free soluble guanylate cyclase. In kind it is biochemical, bovine. On the procedure: (§1) Soluble guanylate cyclase (sGC) catalyzes the conversion of GTP into cGMP and pyrophosphate. In the presence of nicotinamide adenine dinucleotide (NAD^+) and nicotinamide mononucleotide adenylyltransferase (NAT, EC 2.7.7.1), pyrophosphate is converted into ATP and nicotinamide mononucleotide. The ATP formed can be quantified luminometrically with the aid of a luciferase in microtiter plates.
(§2) The substance to be investigated is dissolved in DMSO and diluted with DMSO/water to a final concentration of 50 μM in the assay mixture. The DMSO concentration in the assay mixture should not exceed 5% (v/v).
(§3) 100 μl of reaction mixture should contain 50 mM TEA buffer (pH 7.4), 3 mM MgCl2, 3 mM GSH, 0.1 mM GTP, 1 mM IBMX (isobutylmethylxanthine), 0.2 mM NAD^+, 0.4 mU of NAT, suitably diluted sGC enzyme solution (isolated from bovine lung as described by P. Humbert et al., Methods of Enzymology 195, 384-391 (1991)) and the test substance or solvent (for determining the basal enzyme activity). The reaction is started by adding the sGC. The reaction mixture is incubated at room temperature for 60 min and then stopped by cooling in ice and adding 50 mM EDTA, pH 8.0. […] The relative luminescence units (RLU) can be measured in a microtiter plate luminometer.
(§4) The sGC activity is obtained after subtracting the blank RLU (incubation without enzyme) from the measured RLU. […]

In assay [2] the target is T2, soluble guanylate cyclase with a trivalent heme iron (Bos taurus, UniProt P16068).
T2 construct: suitably diluted sGC enzyme solution (isolated from bovine lung); from tissue; host or cells: bovine lung
T2 sequence (P16068 1-619): T1 sequence (P16068 1-619)
T2 sequence (P19687 1-691 partner): T1 sequence (P19687 1-691 partner)
The assay can be described thus: Activation of soluble guanylate cyclase after oxidation of the heme iron (enzyme stored at 4° C. for about 7 days). Type of assay: biochemical, bovine. Particulars: sGC with trivalent heme iron, prepared by storing freshly prepared enzyme at 4° C. for about 7 days. On the procedure: as §1, §2, §3, §4

pEC50: −log10 of the molar value.

With `COc1cc(NS(=O)(=O)c2ccc(Cl)cc2)c(C(=O)Nc2ccc(S(=O)(=O)N3CCSCC3)cc2)cc1OC` [2-(4-chlorophenylsulfonylamino)-4,5-dimethoxy-N-(4-(thiomorpholine-4-sulfonyl)phenyl)benzamide], the “stimulation of the activity” value in assay [1] is on record as 58.2 fold; in assay [2], 17.6 fold. Also, the results for the pEC50 in assay [1] (read-out: affinity) and in assay [2] were 5.62 and 6.30, respectively.

The values are drawn from patent US7309579B2, “Method for screening for activators of soluble guanylate cyclase having oxidized heme iron” (Sanofi-Aventis Deutschland GmbH, priority 1999, dated 2007).
